US8466184B2, “Biocide” (Titan Chemicals Limited, priority 2011, dated 2013)

What was measured:
[1] = Measuring stability of water solutions (temperature at which the solution remained fluid after 24 hours and seeding); type: physicochemical; details: after 24 hours and seeding with seed crystal
Method: According to the invention there is therefore provided a composition consisting essentially of water and the tetramethylammonium salt of 1,2-benzisothiazolin-3-one having a freezing point of less than about 0° C., such as less than about −1° C. for example less than about −3° C., about −5° C., about −10° C., about −15° C., about −20° C., about −25° C. or −30° C. As used herein the expression “freezing point” means that the composition is fluid after 24 hours and seeded with solid tetramethylammonium salt of 1,2-benzisothiazolin-3-one.
A series of solutions of tetramethylammonium BIT in distilled water were prepared. In series of experiments the temperature at which the solution remained fluid after 24 hours and seeding with a seed crystal of tetramethylammonium BIT was measured.

[2] = 59 wt % tetramethylammonium BIT (40 wt % BIT) in water; after storage for 24 hours and seeding; cited from earlier work

C[N+](C)(C)C.O=c1[n-]sc2ccccc12 [tetramethylammonium BIT, tetramethylammonium salt of 1,2-benzisothiazolin-3-one]
Temp at which the solution remained fluid ([1]; 20.3 % BIT concn in distilled water): −5 °C
Temp at which the solution remained fluid ([1]; 25.3 % BIT concn in distilled water): −8 °C
Temp at which the solution remained fluid ([1]; 30.4 % BIT concn in distilled water): −13 °C
Temp at which the solution remained fluid ([1]; 35.6 % BIT concn in distilled water): −20 °C
Temp at which the solution remained fluid ([1]; 39.3 % BIT concn in distilled water): −32 °C
Temp at which the solution remained fluid ([1]; 42.6 % BIT concn in distilled water): −10 °C
Temp at which the solution remained fluid ([1]; 45 % BIT concn in distilled water): 5 °C
freezing point of lowest freezing point water solution [2]: 3 °C
